Test results taken from PubChem BioAssay AID1963967 (Molecular Pharmacology Branch, DTP, NCI, 2024).

Test system: 855422-203-R-J1-PDC spheroids with HUVEC/MSC, viability
Assay: Anticancer human tumor 855422-203-R-J1-PDC patient-derived bladder carcinoma cell line growth inhibition [PI3K]
Settings: for viability, T/C: stronger effect = lower value; active = viability on the fitted dose curve at most 10% of control; inactive = the rest
Summary of the method: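 Three cell types, namely tumor cells, endothelial cells and mesenchymal stem cells, formed each spheroid. Combinations with four PI3K inhibitors were screened at clinically achievable concentrations decreasing by half-log, and spheroid viability was recorded.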
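Also: agents incubated with spheroids for one week before read-out.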
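For viability, T/C in this document: 100% = DMSO vehicle-treated control wells.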

Cn1ncnc1[C@H]1c2n[nH]c(=O)c3cc(F)cc(c23)N[C@@H]1c1ccc(F)cc1 + CC(Nc1ncnc2nc[nH]c12)c1cc2cccc(Cl)c2c(=O)n1-c1ccccc1
inactive: viability, T/C (second compound 0.0316 µM, first compound 0.000316 µM) 107% | viability, T/C (second compound 0.0316 µM, first compound 0.001 µM) 98% | viability, T/C (second compound 0.0316 µM, first compound 0.00316 µM) 106% | viability, T/C (second compound 0.0316 µM, first compound 0.01 µM) 97.8% | viability, T/C (second compound 0.0316 µM, first compound 0.0316 µM) 109% | viability, T/C (second compound 0.0316 µM, first compound 0.1 µM) 100% | viability, T/C (second compound 0.1 µM, first compound 0.000316 µM) 121% | viability, T/C (second compound 0.1 µM, first compound 0.001 µM) 104% | viability, T/C (second compound 0.1 µM, first compound 0.00316 µM) 113% | viability, T/C (second compound 0.1 µM, first compound 0.01 µM) 101% | viability, T/C (second compound 0.1 µM, first compound 0.0316 µM) 111% | viability, T/C (second compound 0.1 µM, first compound 0.1 µM) 104% | viability, T/C (second compound 0.316 µM, first compound 0.000316 µM) 106% | viability, T/C (second compound 0.316 µM, first compound 0.001 µM) 107% | viability, T/C (second compound 0.316 µM, first compound 0.00316 µM) 121% | viability, T/C (second compound 0.316 µM, first compound 0.01 µM) 102% | viability, T/C (second compound 0.316 µM, first compound 0.0316 µM) 110% | viability, T/C (second compound 0.316 µM, first compound 0.1 µM) 107% | viability, T/C (second compound 1 µM, first compound 0.000316 µM) 106% | viability, T/C (second compound 1 µM, first compound 0.001 µM) 107% | viability, T/C (second compound 1 µM, first compound 0.00316 µM) 110% | viability, T/C (second compound 1 µM, first compound 0.01 µM) 104% | viability, T/C (second compound 1 µM, first compound 0.0316 µM) 104% | viability, T/C (second compound 1 µM, first compound 0.1 µM) 104% | viability, T/C (second compound 3.16 µM, first compound 0.000316 µM) 96.6% | viability, T/C (second compound 3.16 µM, first compound 0.001 µM) 92% | viability, T/C (second compound 3.16 µM, first compound 0.00316 µM) 97.9% | viability, T/C (second compound 3.16 µM, first compound 0.01 µM) 105% | viability, T/C (second compound 3.16 µM, first compound 0.0316 µM) 105% | viability, T/C (second compound 3.16 µM, first compound 0.1 µM) 104% | viability, T/C (second compound 10 µM, first compound 0.000316 µM) 88.3% | viability, T/C (second compound 10 µM, first compound 0.001 µM) 85% | viability, T/C (second compound 10 µM, first compound 0.00316 µM) 78.4% | viability, T/C (second compound 10 µM, first compound 0.01 µM) 87% | viability, T/C (second compound 10 µM, first compound 0.0316 µM) 89.5% | viability, T/C (second compound 10 µM, first compound 0.1 µM) 82.3%
> 100 nM: IC50 (curve of first compound, second compound 0.0316 µM) | IC50 (curve of first compound, second compound 0.1 µM) | IC50 (curve of first compound, second compound 0.316 µM) | IC50 (curve of first compound, second compound 1 µM) | IC50 (curve of first compound, second compound 3.16 µM) | IC50 (curve of first compound, second compound 10 µM)

CC(C)n1nc(-c2ccc3oc(N)nc3c2)c2c(N)ncnc21
55.3 nM [middle of 4 runs]: IC50 (curve of compound)
inactive: viability, T/C (compound 0.000316 µM) 113% [middle of 4 runs] | viability, T/C (compound 0.001 µM) 93.4% [middle of 4 runs] | viability, T/C (compound 0.00316 µM) 113% [middle of 4 runs] | viability, T/C (compound 0.01 µM) 91.1% [middle of 4 runs] | viability, T/C (compound 0.0316 µM) 80.6% [middle of 4 runs] | viability, T/C (compound 0.1 µM) 17.8% [middle of 4 runs]
